Measured values as given in ChEMBL document CHEMBL1201862, “PubChem BioAssay data set” (2004).
Values joined by “and” are separate entries in the source; they are usually repeats but may differ in a detail not shown here. Identical values can stand only once. Active and inactive are the calls of the source.

How the values were obtained:
[1] = viability of uninfected HEp-2 cells – cell-based, HTS, cytotoxicity control for RSV inhibitor project, dose response (AID 2410); format: functional; settings: human respiratory syncytial virus
[2] = biological target: T1, Corticotropin-releasing factor receptor 2/Corticotropin-releasing factor-binding protein (Homo sapiens, UniProt P24387+Q13324); experiment: activators of CRF receptor 2 with binding protein – uHTS hits, confirmation (AID 602473); format: functional; settings: read-out: EC50_Mean
T1 sequence (Q13324 whole entry): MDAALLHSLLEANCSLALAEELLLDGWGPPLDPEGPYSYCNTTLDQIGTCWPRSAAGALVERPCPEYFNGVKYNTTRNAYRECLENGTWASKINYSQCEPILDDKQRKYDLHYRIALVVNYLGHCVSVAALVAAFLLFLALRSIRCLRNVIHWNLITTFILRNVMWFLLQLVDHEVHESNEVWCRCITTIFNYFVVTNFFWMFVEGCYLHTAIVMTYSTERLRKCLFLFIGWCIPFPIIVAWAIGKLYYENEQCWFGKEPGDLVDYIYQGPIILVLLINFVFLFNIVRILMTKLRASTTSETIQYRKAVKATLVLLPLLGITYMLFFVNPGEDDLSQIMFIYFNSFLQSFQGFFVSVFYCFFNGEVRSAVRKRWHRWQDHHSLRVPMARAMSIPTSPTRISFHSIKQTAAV
T1 sequence (P24387 whole entry): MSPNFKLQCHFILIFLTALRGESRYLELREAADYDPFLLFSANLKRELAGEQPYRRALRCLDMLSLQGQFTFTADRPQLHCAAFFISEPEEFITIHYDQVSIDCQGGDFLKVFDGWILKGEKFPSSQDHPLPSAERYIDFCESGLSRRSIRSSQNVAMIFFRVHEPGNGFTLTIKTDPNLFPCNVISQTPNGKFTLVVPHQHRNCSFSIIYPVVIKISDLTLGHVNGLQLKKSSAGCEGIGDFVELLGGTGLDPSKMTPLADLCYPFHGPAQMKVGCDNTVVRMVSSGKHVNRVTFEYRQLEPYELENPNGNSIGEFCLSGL

[3] = biological target: T1, Corticotropin-releasing factor receptor 2/Corticotropin-releasing factor-binding protein; experiment: Dose Response confirmation of uHTS hits for small molecule antagonists of the CRF-binding protein and CRF-R2 receptor complex.; format: functional; settings: read-out: IC50_Mean
Cytochrome P450 1A2 = biological target: T2, Cytochrome P450 1A2 (Homo sapiens, UniProt P05177);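 also: PubChem cytochrome P450 panel assay, CYP1A2 panel member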
T2 sequence (P05177 whole entry): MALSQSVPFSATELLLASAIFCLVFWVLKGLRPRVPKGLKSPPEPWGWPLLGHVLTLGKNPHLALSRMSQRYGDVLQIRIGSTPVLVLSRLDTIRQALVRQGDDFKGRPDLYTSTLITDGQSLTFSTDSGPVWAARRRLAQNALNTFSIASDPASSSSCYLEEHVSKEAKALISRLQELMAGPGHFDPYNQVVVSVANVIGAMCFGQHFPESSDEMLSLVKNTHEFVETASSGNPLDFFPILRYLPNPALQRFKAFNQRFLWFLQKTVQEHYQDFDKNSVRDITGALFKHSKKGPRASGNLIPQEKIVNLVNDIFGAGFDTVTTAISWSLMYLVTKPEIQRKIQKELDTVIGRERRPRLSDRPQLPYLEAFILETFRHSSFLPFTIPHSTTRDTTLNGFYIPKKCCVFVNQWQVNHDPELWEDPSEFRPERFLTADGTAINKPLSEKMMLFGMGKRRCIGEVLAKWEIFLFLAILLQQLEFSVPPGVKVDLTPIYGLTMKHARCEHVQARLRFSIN

INS1 = experiment: INS-1E survival protection against cytokine death – cell-based, luminescence, retest, dose response (AID 449756); format: functional; settings: Rattus norvegicus;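 also: cell death triggered by IL-1 beta plus TNF-alpha plus IFN-gamma mixture; protective hits raise ATP signal compared with cytokine alone wells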
Cytochrome P450 2D6 = Cytochrome P450 2D6 (Homo sapiens, UniProt P10635);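 also: CYP2D6 member of a cytochrome P450 panel assay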
Sequence of Cytochrome P450 2D6 (P10635 whole entry): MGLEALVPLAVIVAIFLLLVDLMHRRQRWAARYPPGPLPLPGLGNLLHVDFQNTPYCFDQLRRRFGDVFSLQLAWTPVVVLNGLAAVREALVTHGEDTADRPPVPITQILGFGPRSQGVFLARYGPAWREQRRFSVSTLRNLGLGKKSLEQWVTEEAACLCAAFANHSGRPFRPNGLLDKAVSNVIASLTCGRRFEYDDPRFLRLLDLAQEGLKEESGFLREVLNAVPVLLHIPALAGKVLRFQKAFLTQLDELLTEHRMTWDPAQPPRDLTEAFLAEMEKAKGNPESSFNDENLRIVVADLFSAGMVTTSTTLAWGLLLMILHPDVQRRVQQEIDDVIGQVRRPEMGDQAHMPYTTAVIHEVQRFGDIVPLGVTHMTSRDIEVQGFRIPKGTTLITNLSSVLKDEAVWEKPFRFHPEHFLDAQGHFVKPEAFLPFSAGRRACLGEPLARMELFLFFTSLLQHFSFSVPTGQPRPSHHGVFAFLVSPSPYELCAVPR

Cytochrome P450 2C19 = Cytochrome P450 2C19 (Homo sapiens, UniProt P33261); experiment: Cytochrome panel assay with activity outcomes. Panel member name: p450-cyp2c19 Compounds with AC50 equal or less than 10 uM are considered active; format: functional
Sequence of Cytochrome P450 2C19 (P33261 whole entry): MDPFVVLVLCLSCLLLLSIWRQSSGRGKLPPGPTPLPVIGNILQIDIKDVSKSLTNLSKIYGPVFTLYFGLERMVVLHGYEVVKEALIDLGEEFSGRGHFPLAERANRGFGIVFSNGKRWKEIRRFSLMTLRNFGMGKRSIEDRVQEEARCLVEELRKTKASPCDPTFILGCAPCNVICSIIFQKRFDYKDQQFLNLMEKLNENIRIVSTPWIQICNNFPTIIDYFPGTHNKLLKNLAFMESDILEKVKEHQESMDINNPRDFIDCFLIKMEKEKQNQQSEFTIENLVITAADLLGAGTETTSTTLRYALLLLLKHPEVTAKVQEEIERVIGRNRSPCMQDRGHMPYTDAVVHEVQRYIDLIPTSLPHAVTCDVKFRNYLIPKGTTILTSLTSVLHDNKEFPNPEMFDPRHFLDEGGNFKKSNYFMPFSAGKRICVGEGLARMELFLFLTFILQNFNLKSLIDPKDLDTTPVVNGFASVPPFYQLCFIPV

[4] = Trypanosoma cruzi growth suppression in host cells – NIH3T3 host cells, beta-gal luminescence, confirmation (AID 2044); format: functional, cell-based;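 also: intracellular parasites grown in NIH/3T3 mouse fibroblasts as host cells; luminescent beta-galactosidase reporter signal from transgenic T. cruzi replicating inside host cells; inhibitors lower the luminescence signal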
[5] = NIH3T3 cell viability loss – ATP luminescence, mouse fibroblasts, counter-screen, dose response (AID 2010); format: functional, cell-based;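 also: cells exposed to compound for about 90 hours before reading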
Cytochrome P450 3A4 = Cytochrome P450 3A4 (Homo sapiens, UniProt P08684);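 also: CYP3A4 tested as one member of a cytochrome P450 panel screen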
Sequence of Cytochrome P450 3A4 (P08684 whole entry): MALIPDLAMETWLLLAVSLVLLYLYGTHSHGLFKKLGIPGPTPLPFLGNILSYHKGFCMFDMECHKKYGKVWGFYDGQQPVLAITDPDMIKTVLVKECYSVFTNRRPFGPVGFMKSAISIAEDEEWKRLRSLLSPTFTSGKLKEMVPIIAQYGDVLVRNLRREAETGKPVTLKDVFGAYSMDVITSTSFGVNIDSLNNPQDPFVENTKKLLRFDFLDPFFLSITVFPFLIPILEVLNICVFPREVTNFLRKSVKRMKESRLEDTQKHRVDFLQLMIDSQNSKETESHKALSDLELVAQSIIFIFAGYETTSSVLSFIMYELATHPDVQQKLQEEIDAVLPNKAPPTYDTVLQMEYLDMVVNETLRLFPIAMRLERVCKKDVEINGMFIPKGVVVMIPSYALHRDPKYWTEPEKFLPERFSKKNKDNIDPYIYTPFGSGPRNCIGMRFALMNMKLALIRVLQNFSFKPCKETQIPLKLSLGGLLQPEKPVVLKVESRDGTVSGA

Cytochrome P450 2C9 = Cytochrome P450 2C9 (Homo sapiens, UniProt P11712)
Sequence of Cytochrome P450 2C9 (P11712 whole entry): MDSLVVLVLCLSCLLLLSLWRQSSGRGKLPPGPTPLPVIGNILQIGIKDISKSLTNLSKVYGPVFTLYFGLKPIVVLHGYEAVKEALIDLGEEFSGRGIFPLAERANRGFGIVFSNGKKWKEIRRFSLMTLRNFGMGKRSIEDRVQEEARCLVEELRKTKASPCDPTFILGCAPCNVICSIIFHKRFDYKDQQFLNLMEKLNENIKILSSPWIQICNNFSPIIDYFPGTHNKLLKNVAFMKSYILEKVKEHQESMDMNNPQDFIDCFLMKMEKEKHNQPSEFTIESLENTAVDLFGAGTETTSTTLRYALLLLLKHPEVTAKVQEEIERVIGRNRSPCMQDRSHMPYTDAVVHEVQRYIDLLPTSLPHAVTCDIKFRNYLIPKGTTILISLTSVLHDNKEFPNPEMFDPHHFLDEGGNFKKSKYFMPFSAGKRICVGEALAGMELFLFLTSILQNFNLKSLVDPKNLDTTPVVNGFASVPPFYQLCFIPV

[6] = Luminescence Cell-Based Dose Response HTS to Identify Inhibitors of 5'UTR Stem-Loop Driven Prion Protein mRNA Translation in H4 Neuroglioblastoma Cells. [Related pubchem assays: 1827 (Project Summary), 1813 (Primary HTS)]; format: functional
[7] = alpha-synuclein stem-loop luciferase translation blockers – H4 neuroglioma cells, luminescence, confirmation (AID 1988); format: functional, cell-based
[8] = viability of PTEN-deleted HCT116 cells – cell-based, HCT116 PTEN knockout, dose response (AID 1047); format: functional;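 also: HCT116 colon tumor cells with PTEN knocked out; cells exposed to compound for 60 hours before readout; potency for loss of cell viability measured by luminescence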
[9] = luciferase reporter signal suppression in cells – H4 neuroglioma cells, luminescence, dose response (AID 1990); format: functional, cell-based
[10] = reduction of Shn3 3'UTR-driven luciferase in osteoblasts – cell-based, Clone20 osteoblasts, firefly luciferase, cherry-picked, dose response (AID 624132); format: functional;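 also: firefly luciferase luminescence from reporter carrying the Shn3 3'UTR in osteoblasts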
[11] = non-specific 3'UTR reporter inhibition in Clone20-Shn3RL – cell-based, Renilla luciferase, cherry-picked, counter-screen for Shn3 inhibitor project, dose response (AID 624133); format: functional

O=C(NCc1nnc(SCC(=O)N2CCCc3ccccc32)n1-c1ccccc1)c1cccc2ccccc12
CC50 [1]: > 50 µM (active)

CCN(C(=O)CSc1cc(C)c2ccc(OC)cc2n1)C1CCS(=O)(=O)C1 (configuration not stated)
EC50 [2]: > 53 µM (inactive) | IC50 [3]: > 47.1 µM (inactive)

Cc1onc(-c2ccccc2Cl)c1C(=O)Nc1cccc2cccnc12
CC50 [1]: 3.16 µM (active)

COCCn1c(=O)c(-c2cc(F)cc(F)c2)nc2cnc(N(C)C)nc21
AC50 (Cytochrome P450 1A2): 5.01 µM (inconclusive)

CS(=O)(=O)Nc1cccc(-c2nc(N3CCNCC3)c3ccccc3n2)c1
AC50 (Cytochrome P450 1A2): 20 µM (inconclusive)

Cn1cc(-c2nc3cncnc3n(Cc3ccc(F)cc3)c2=O)c2ccccc21
AC50 (Cytochrome P450 1A2): 1.26 µM (inconclusive)

NCOC(=O)Cc1ccc(Br)cc1
AC50 (Cytochrome P450 1A2): 0.2 µM (active)

O=C(C1CCC1)N1CCc2cc(S(=O)(=O)Nc3ccc4c(c3)OCCO4)ccc21
AC50 (INS1): 5.88 µM (active)

O=C(c1ccco1)N1CCN(c2ncnc3c2cnn3-c2ccccc2)CC1
CC50 [1]: 38.5 µM (active)

Cn1c(CC(=O)Nc2ccc(Cl)c(Cl)c2)nnc1SCC(=O)N1CCN(c2ccccc2)CC1
AC50 (Cytochrome P450 2D6): 25.1 µM (inconclusive) | AC50 (Cytochrome P450 1A2): 15.8 µM (inconclusive)

CC(=O)OC[C@H]1O[C@@H](O/N=C2/[C@H]3O[C@@H]3[C@@H](O)[C@H]3[C@H]2CCn2c(=O)n(-c4ccccc4)c(=O)n23)[C@H](OC(C)=O)[C@@H](OC(C)=O)[C@@H]1OC(C)=O
AC50 (Cytochrome P450 2D6): 3.16 µM (inconclusive) | AC50 (Cytochrome P450 2C19): inconclusive

O=C1C(c2ccccn2)=[N+]([O-])c2ccccc21
AC50 (Cytochrome P450 1A2): 0.158 µM (active)

C/C(=C\c1ccccc1)CN1CCC(C(=O)N2CCCCC2)CC1
EC50 [2]: > 53 µM (inactive) | IC50 [3]: > 47.1 µM (inactive)

N#Cc1cnn2c(-c3cccc(C(F)(F)F)c3)ccnc12
CC50 [1]: 47 µM (active)

O=c1c2c3c(sc2n(CCN2CCCCC2)c(=O)n1Cc1ccco1)CCCCC3
AC50 (INS1): 17.9 µM (active) | EC50 [4]: 2.76 µM (active) | EC50 [5]: > 30 µM (not active)

O=c1c2ccccc2nc2n1C(CBr)CN2 (configuration not stated)
EC50 [2]: > 53 µM (inactive) | IC50 [3]: > 47.1 µM (inactive)

COc1ccccc1NC(=O)CCc1c(C)nc(O)c(C#N)c1C
AC50 (Cytochrome P450 3A4): 17.8 µM (inconclusive) | AC50 (Cytochrome P450 1A2): 0.00631 µM (inconclusive) | AC50 (Cytochrome P450 2C19): inconclusive

CCC/C=C(\CCC)C(NS(=O)(=O)c1ccccc1)c1ccc(C(F)(F)F)cc1 (configuration not stated)
AC50 (Cytochrome P450 1A2): 12.6 µM (inconclusive)

Cc1ccc(C(=O)Nc2nnc(-c3ccco3)o2)cc1C
EC50 [2]: > 53 µM (inactive) | IC50 [3]: > 47.1 µM (inactive)

CCOC(=O)c1c(C)n(C)c2ccc(OC)c(NS(=O)(=O)c3ccc(Cl)s3)c12
AC50 (Cytochrome P450 3A4): 1.58 µM (inconclusive) | AC50 (Cytochrome P450 1A2): 5.62 µM (inconclusive) | AC50 (Cytochrome P450 2C9): 3.16 µM (inconclusive)

Clc1ccccc1OCCCCN1CCCC1
AC50 (Cytochrome P450 1A2): 15.8 µM (inconclusive) | AC50 (Cytochrome P450 2C19; read-out: AC50): 28.2 µM (inconclusive)

O=C(/C=C/c1ccco1)OCc1nnc(-c2ccc(Cl)cc2)o1
EC50 [2]: > 53 µM (inactive) | IC50 [3]: > 47.1 µM (inactive)

CCOc1ccc(-c2c(=O)n(OCc3ccccn3)c3ccccc3[n+]2[O-])cc1
AC50 (Cytochrome P450 3A4): 12.6 µM (inconclusive) | AC50 (Cytochrome P450 1A2): 12.6 µM (inconclusive) | AC50 (Cytochrome P450 2C9): 5.62 µM (inconclusive) | AC50 (Cytochrome P450 2C19; read-out: AC50): 15.8 µM (inconclusive)

COc1cccc(Nc2ncc3nc(-c4cccs4)c(=O)n(-c4ccccc4)c3n2)c1
AC50 (Cytochrome P450 3A4): 20 µM (inconclusive) | AC50 (Cytochrome P450 1A2): 3.16 µM (inconclusive)

CC(C)OC(=O)/C(=C\c1ccc2c(c1)c1ccccc1n2C)NC(=O)c1ccccc1
AC50 (Cytochrome P450 1A2): 2.24 µM (inconclusive) | AC50 (Cytochrome P450 2C9): 6.31 µM (inconclusive) | AC50 (Cytochrome P450 2C19; read-out: AC50): 2.51 µM (inconclusive)

COc1ccc(CCNC(=O)c2c(N)n(CCN3CCOCC3)c3nc4ccccc4nc23)cc1OC
EC50 [6]: 13.3 µM (active) | EC50 [7]: > 120 µM (not active) | EC50 [8]: 94.9 µM (active) | EC50 [9]: > 120 µM (not active)

O=C(Nc1cccc(F)c1)N1CC[C@@]2(CCCN(C(=O)Oc3ccccc3)C2)C1
AC50 (Cytochrome P450 2D6): 20 µM (inconclusive) | AC50 (Cytochrome P450 3A4): 5.01 µM (inconclusive) | AC50 (Cytochrome P450 1A2): 15.8 µM (inconclusive)

CSc1cccc(NC(=O)C(C)C)c1
EC50 [2]: > 53 µM (inactive) | IC50 [3]: > 47.1 µM (inactive)

CCOc1ccc(C2C(C(=O)c3ccc4c(c3)OCCO4)=C(O)C(=O)N2CCCN2CCOCC2)cc1 (configuration not stated)
EC50 [2]: > 53 µM (inactive) | IC50 [3]: > 47.1 µM (inactive)

CC#CCCC(=O)N1C=Cc2ccccc2C1C#N (configuration not stated)
EC50 [2]: > 53 µM (inactive) | IC50 [3]: > 47.1 µM (inactive)

CSc1nnnn1-c1ccc(Cl)cc1
CC50 [1]: 30.7 µM (active)

CCCOc1ccccc1C1CC(=O)Nc2cc3c(cc21)OCCO3 (configuration not stated)
AC50 [10]: 3.66 µM (active) | AC50 [11]: 10.2 µM (active)

O=C(O)c1ccccc1NS(=O)(=O)c1ccc2c(c1)OCCO2
EC50 [2]: > 53 µM (inactive) | IC50 [3]: > 47.1 µM (inactive)

O=C(Nc1ccncc1)Nc1cccc(C(F)(F)F)c1
CC50 [1]: > 50 µM (active)

CC(/C=C/c1ccccc1)=N/NC(=O)CNC(=O)c1ccc2c(c1)OCO2
AC50 (Cytochrome P450 2D6): 0.0501 µM (inconclusive) | EC50 [2]: > 53 µM (inactive) | IC50 [3]: > 47.1 µM (inactive)

CCCN[C@@H]1CCc2c(OC)cccc2[C@@H]1C
AC50 (Cytochrome P450 1A2): 31.6 µM (inconclusive)

Cc1nc2ccccc2c(=O)n1/N=C/c1c(O)ccc2ccccc12
AC50 (INS1): 6.35 µM (active)

COc1ccc(/C(O)=C(\C#N)c2nc3ccccc3n2C)cc1OC
AC50 (Cytochrome P450 2D6): 1.58 µM (inconclusive) | AC50 (Cytochrome P450 3A4): 3.55 µM (inconclusive) | AC50 (Cytochrome P450 2C9): 0.251 µM (inconclusive) | AC50 (Cytochrome P450 2C19; read-out: AC50): 39.8 µM (inconclusive)

CN(CCc1ccc(Cl)c(Cl)c1)C[C@@H](O)COc1ccc(NS(C)(=O)=O)cc1
AC50 (Cytochrome P450 3A4): 15.8 µM (inconclusive) | AC50 (Cytochrome P450 1A2): 15.8 µM (inconclusive)

CN1CCN(C2=Nc3ccccc3Oc3ccc(Cl)cc32)CC1 [LOXAPINE SUCCINATE]
AC50 (Cytochrome P450 2D6): 10 µM (inconclusive) and 31.6 µM (inconclusive) | AC50 (Cytochrome P450 1A2): 31.6 µM (inconclusive) and 3.16 µM (inconclusive)
